From patent US9944589B2, “Cycloproplyamine derivatives useful as inhibitors of histone demethylases KDM1A” (Istituto Europeo de Oncologia S.r.L., priority 2012, dated 2018) come the findings set out here.

Where a name gives a salt, the structure may show the parent alone. Read-outs that look alike come from different tables or passages of the source. Where only a bound is given, the exact number is not on record here.

For this assay, the target named is T1, human recombinant KDM1A (LSD1)/CoRest (Homo sapiens, UniProt O60341).
T1 construct: made in house; host or cells: E. coli
The experiment in a line: Assay of enzyme inhibition of KDM1A (LSD1), Amplex UltraRed/peroxidase coupled. It counts as biochemical. As to conditions: 15 min preincubation, 4.5 μM mono-methylated H3-K4 peptide, range classes. As to the method:
The experiments were performed using a mono-methylated H3-K4 peptide containing 21 amino acids (custom synthesis done by Thermo Scientific) as substrate and in a 50 mM TRIS, pH 8, 0.05 mg/ml BSA buffer.
The demethylase activity was estimated under aerobic conditions and at RT by measuring the release of H2O2 produced during the catalytic process by the Amplex® UltraRed detection system coupled with peroxidase assay. Briefly, a fixed amount of KDM1A/CoRest complex was incubated at RT for 15 minutes in the absence and/or the presence of various concentrations of inhibitor (e.g. from 0 to 100 μM, depending on the inhibitor strength) and of Amplex® UltraRed detection system coupled with peroxidase assay. The inhibitors were tested twice in duplicates at each concentration. […] The conversion of the Amplex® Ultra Red reagent to resorufin was monitored in continuous by fluorescence (excitation at 540 nm, emission at 590 nm) using a microplate reader (Infinite 200, Tecan). Arbitrary units were used to measure the level of H2O2 produced in the absence and/or in the presence of inhibition. The maximum demethylase activity of KDM1A/CoRest was obtained in the absence of inhibitors and corrected for background fluorescence in the absence of KDM1A/CoRest. The IC50 was calculated using GraphPad Software.

The mark [1] stands for this setting: read-out: IC50 [μM], KDM1A inhibition assay.
Where [2] appears, read: IC50 [μM], KDM1A inhibition assay.

As for `CC(C)[C@@]1(N)C[C@H]1c1ccccc1` (relative stereo) [Example A-7, trans-1-isopropyl-2-phenyl-cyclopropanamine hydrochloride], under setting [1], the IC50 was in the range of 1 to 5 µM.

In the case of `CC[C@@]1(N)C[C@H]1c1ccc(F)cc1` (relative stereo) [Example A-16, trans-1-ethyl-2-(4-fluorophenyl)cyclopropanamine hydrochloride], under setting [1], the IC50 was in the range of 1 to 5 µM.

As to `CC[C@@]1(N)C[C@H]1c1ccc(Cl)cc1` (relative stereo) [Example A-17, trans-1-ethyl-2-(4-chlorophenyl)cyclopropanamine; hydrochloride], under setting [1], the IC50 lay within 0.1 to 1 µM.

For the compound `CC[C@@]1(N)C[C@H]1c1cccc(C(F)(F)F)c1` (relative stereo) [Example A-18, trans-1-ethyl-2-[3-(trifluoromethyl)phenyl]cyclo-propanamine hydrochloride], under setting [1], the IC50 was 0.1 to 1 µM.

For the compound `CC[C@@]1(N)C[C@H]1c1ccc(C(F)(F)F)cc1` (relative stereo) [Example A-19, trans-1-ethyl-2-[4-(trifluoromethyl)phenyl]cyclo-propanamine hydrochloride], the IC50 under setting [1] lay within 0.1 to 1 µM.

With `CC[C@@]1(N)C[C@H]1c1cccc(F)c1` (relative stereo) [Example A-20, trans-1-ethyl-2-(3-fluorophenyl)cyclopropanamine hydrochloride], the IC50 under setting [2] was less than 0.1 µM.

For the compound `CC[C@@]1(N)C[C@H]1c1cccc(Cl)c1` (relative stereo) [Example A-21, trans-1-ethyl-2-(3-chlorophenyl)-cyclopropanamine hydrochloride], the IC50 under setting [2] is less than 0.1 µM.

As to `CC[C@@]1(N)C[C@H]1c1cccc(Br)c1` (relative stereo) [Example A-22, trans-1-ethyl-2-(3-bromophenyl)-cycloproanamine hydrochloride], the IC50 under setting [2] was less than 0.1 µM.

Turning to `CC[C@@]1(N)C[C@H]1c1cccc(OC)c1` (relative stereo) [Example A-23, trans-1-ethyl-2-[3-methoxyphenyl]cyclopro-panamine hydrochloride], the IC50 under setting [1] lay in the range of 0.1 to 1 µM.

Regarding `CC[C@@]1(N)C[C@H]1c1ccccc1F` (relative stereo) [Example A-25, trans-1-ethyl-2-(2-fluorophenyl)cyclopropanamine hydrochloride], the IC50 under setting [1] is 0.1 to 1 µM.

For `CC[C@@]1(N)C[C@H]1c1ccccc1Cl` (relative stereo) [Example A-26, trans-1-ethyl-2-(2-chlorophenyl)-cyclopropanamine hydrochloride], the IC50 under setting [1] was in the range of 0.1 to 1 µM.

For `CC[C@@]1(N)C[C@H]1c1ccccc1Br` (relative stereo) [Example A-27, trans-1-ethyl-2-(2-bromophenyl)-cyclopropanamine hydrochloride], the IC50 under setting [1] was 0.1 to 1 µM.

Turning to `CC[C@@]1(N)C[C@H]1c1ccc(NC(=O)c2cccc(-c3ccccc3)c2)cc1` (relative stereo) [Example A-35], under setting [1], the IC50 was less than 0.1 µM.

For the compound `CC[C@@]1(N)C[C@H]1c1ccc(NC(=O)Cc2ccccc2)cc1` (relative stereo) [Example A-39, N-[4-[(trans-2-amino-2-ethyl-cyclopropyl]phenyl]-2-phenyl-acetamide hydrochloride], under setting [1], the IC50 is less than 0.1 µM.

Take `CC[C@@]1(N)C[C@H]1c1cccc(N=[N+]=[N-])c1` (relative stereo) [Example A-49, trans-2-(3-Azidophenyl)-1-ethyl-cyclopropanamine hydrochloride]: the IC50 under setting [1] was less than 0.1 µM.

As for `CC[C@@]1(N)C[C@H]1c1ccc(Br)c(F)c1` (relative stereo) [Example A-50, trans-2-(4-bromo-3-fluoro-phenyl)-1-ethyl-cyclopropanamine hydrochloride], the IC50 under setting [2] is less than 0.1 µM.

For the compound `N[C@@]1(CCc2ccccc2)C[C@@H]1c1cccc(Br)c1` (relative stereo) [Example A-51, trans 2-(3-bromophenyl)-1-phenethyl-cyclopropanamine hydrochloride], under setting [1], the IC50 was less than 0.1 µM.

Turning to `N[C@]1(Cc2ccc3ccccc3c2)C[C@H]1c1ccc(F)cc1` (relative stereo) [Example A-54, trans-2-(4-fluorophenyl)-1-(2-naphthylmethyl)cyclo-propanamine hydrochloride], the IC50 under setting [1] lay within 0.1 to 1 µM.

Consider `N[C@]1(Cc2ccc3ccccc3c2)C[C@H]1c1ccc(Cl)cc1` (relative stereo) [Example A-55, trans-2-(4-chlorophenyl)-1-(2-naphthylmethyl)cyclo-propanamine hydrochloride], for which the IC50 under setting [1] lay in the range of 0.1 to 1 µM.

As for `N[C@]1(Cc2ccc3ccccc3c2)C[C@H]1c1cccc(Cl)c1` (relative stereo) [Example A-56, trans-2-(3-chlorophenyl)-1-(2-naphthylmethyl)cyclo-propanamine hydrochloride], the IC50 under setting [1] was in the range of 0.1 to 1 µM.

Consider `N[C@]1(Cc2ccc3ccccc3c2)C[C@H]1c1cccc(Br)c1` (relative stereo) [Example A-57, trans-2-(3-bromophenyl)-1-(2-naphthylmethyl)cyclo-propanamine hydrochloride], for which, under setting [1], the IC50 lay in the range of 0.1 to 1 µM.

As for `N[C@]1(CCc2ccccc2)C[C@H]1c1ccc(Cl)cc1` (relative stereo) [Example A-58, trans-2-(4-chlorophenyl)-1-phenethyl-cyclopropanamine hydrochloride], the IC50 under setting [1] is less than 0.1 µM.

As for `N[C@]1(CCc2ccccc2)C[C@H]1c1ccc(F)cc1` (relative stereo) [Example A-59, trans-2-(4-fluorophenyl)-1-phenethyl-cyclopropanamine hydrochloride], the IC50 under setting [1] was 0.1 to 1 µM.

Take `N[C@]1(Cc2ccccc2)C[C@H]1c1ccc(F)cc1` (relative stereo) [Example A-60, trans-1-benzyl-2-(4-fluorophenyl)cyclo-propanamine]: under setting [1], the IC50 fell in the range of 0.1 to 1 µM.

On to `N[C@]1(Cc2ccccc2)C[C@H]1c1ccc(Cl)cc1` (relative stereo) [Example A-61, trans-1-benzyl-2-(4-chlorophenyl)cyclo-propanamine hydrochloride], for which, under setting [1], the IC50 is 0.1 to 1 µM.

In the case of `N[C@]1(CCc2ccccc2)C[C@H]1c1ccc(Br)cc1` (relative stereo) [Example A-62, trans 2-(4-bromophenyl)-1-phenethyl-cyclopropanamine 2,2,2-trifluoroacetic acid], the IC50 under setting [1] was in the range of 0.1 to 1 µM.

For the compound `CC[C@@]1(N)C[C@H]1c1ccc(NC(=O)c2ccc(-c3ccccc3)c(NC3CCN(C)CC3)c2)cc1` (relative stereo) [Example A-66, N-[4-(trans-2-amino-2-ethyl-cyclopropyl)phenyl]-3-[(1-methyl-4-piperidyl)amino]-4-phenyl-benzamide dihydrochloride], the IC50 under setting [1] was less than 0.1 µM.

As to `CC[C@@]1(N)C[C@H]1c1ccc(NC(=O)Cc2ccc([N+](=O)[O-])cc2)cc1` (relative stereo) [Example A-69, N-[4-trans-[2-amino-2-ethyl-cyclopropyl]phenyl]-2-(4-nitrophenyl) acetamide hydrochloride], the IC50 under setting [1] was less than 0.1 µM.

For `CC[C@@]1(N)C[C@H]1c1cccc(NC(=O)c2ccccc2)c1` (relative stereo) [Example A-93, N-[3-[trans-2-amino-2-ethyl-cyclopropyl]phenyl] benzamide hydrochloride], the IC50 under setting [1] fell in the range of 0.1 to 1 µM.
